Assay results taken from patent publication US20250295646A1, “METHODS OF USE OF T-TYPE CALCIUM CHANNEL MODULATORS” (Praxis Precision Medicines, Inc., priority 2022, published 2025).

Assays:
[1] = Within-participant escalating dose trial Part B: safety and tolerability; type: in vivo, human; settings: for dose levels well-tolerated with titration: titrated dosing schedule, per day
[2] = test system: sigma band EEG power during NREM sleep; test: EEG/PSG: sigma band EEG power during NREM sleep; type: in vivo, human; settings: 20 mg tablet and 40 mg tablet (FIG. 12)
hCav3.3 = target: T1, hCav3.3 (Homo sapiens, UniProt Q9P0X4); test: PatchXpress patch clamp, voltage dependent block (half-inactivated state); type: cell-based
T1 construct: expressed in transfected cells; host or cells: HEK-293
T1 sequence (Q9P0X4 whole entry): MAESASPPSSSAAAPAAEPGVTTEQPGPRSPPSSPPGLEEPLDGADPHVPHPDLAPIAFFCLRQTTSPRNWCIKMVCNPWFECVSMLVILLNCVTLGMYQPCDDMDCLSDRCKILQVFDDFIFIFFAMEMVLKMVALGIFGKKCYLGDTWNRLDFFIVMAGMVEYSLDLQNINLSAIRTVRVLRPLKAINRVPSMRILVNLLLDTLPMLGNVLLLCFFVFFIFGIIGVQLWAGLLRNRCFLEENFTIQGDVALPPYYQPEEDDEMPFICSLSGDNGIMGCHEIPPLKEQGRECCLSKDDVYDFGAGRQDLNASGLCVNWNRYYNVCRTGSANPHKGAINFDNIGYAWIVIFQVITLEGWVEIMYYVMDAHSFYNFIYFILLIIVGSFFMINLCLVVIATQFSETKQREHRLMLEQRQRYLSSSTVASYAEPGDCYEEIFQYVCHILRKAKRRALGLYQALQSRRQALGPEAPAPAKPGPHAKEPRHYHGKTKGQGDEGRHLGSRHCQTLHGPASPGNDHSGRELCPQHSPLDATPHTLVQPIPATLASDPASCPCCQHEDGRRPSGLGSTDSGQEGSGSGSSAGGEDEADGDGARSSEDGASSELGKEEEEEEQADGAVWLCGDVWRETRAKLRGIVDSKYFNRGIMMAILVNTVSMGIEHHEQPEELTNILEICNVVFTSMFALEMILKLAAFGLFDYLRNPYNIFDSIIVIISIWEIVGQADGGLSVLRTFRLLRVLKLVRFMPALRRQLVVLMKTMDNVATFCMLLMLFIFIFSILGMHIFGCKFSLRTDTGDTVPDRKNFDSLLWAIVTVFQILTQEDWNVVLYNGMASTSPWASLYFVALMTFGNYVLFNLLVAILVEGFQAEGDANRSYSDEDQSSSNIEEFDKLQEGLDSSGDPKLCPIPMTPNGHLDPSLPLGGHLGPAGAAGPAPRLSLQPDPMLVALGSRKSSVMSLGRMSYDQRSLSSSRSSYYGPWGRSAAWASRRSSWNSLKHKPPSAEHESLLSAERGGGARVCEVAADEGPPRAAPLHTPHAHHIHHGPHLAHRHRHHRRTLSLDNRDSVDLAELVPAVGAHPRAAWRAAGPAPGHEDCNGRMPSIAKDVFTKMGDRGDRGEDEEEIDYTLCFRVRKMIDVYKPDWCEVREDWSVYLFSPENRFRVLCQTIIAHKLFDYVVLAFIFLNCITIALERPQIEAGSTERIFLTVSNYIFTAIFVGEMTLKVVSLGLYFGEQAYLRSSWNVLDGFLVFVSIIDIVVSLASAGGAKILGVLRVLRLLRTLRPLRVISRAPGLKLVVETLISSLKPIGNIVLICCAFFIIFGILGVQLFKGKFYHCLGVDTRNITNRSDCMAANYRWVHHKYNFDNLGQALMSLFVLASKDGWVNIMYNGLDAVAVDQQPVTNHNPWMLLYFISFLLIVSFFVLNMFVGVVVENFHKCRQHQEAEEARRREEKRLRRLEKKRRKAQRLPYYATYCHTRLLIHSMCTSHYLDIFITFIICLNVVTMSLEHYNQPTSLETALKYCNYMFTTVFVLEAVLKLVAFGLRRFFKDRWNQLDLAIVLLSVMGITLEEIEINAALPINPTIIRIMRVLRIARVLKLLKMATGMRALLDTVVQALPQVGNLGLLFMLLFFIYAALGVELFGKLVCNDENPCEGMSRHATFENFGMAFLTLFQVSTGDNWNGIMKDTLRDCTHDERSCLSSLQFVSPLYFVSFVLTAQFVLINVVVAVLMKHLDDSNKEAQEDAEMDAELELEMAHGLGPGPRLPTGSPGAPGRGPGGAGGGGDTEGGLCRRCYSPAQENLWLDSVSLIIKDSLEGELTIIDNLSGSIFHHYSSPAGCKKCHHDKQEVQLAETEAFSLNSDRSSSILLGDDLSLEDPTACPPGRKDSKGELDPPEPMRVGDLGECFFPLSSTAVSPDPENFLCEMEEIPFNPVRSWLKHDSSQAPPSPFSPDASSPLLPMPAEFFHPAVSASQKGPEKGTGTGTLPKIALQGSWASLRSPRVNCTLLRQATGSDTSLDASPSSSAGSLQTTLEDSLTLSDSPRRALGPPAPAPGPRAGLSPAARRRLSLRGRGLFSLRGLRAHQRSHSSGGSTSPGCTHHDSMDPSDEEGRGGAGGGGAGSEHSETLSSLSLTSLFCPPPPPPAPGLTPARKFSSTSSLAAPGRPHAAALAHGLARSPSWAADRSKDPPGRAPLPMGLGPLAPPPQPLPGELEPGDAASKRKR

[3] = Phase 1 single ascending dose (Part A) pharmacokinetics of 20 mg tablet formulation 3; settings: human, in vivo, oral, single 60 mg, geometric mean
Protocol: This was a 2-part, Phase 1 double blind, placebo controlled trial to assess the safety, tolerability, pharmacokinetics, and pharmacodynamics (including the KSS, the KDT, the SQSQ and 24-hour EEG recordings), of single, ascending (Part A: 20, 40, and 60 mg) and multiple, ascending (Part B: 20 and 40 mg for 8 days) doses of the 20 mg tablet (formulation 3) in healthy participants. […] Variability in Cmax and AUC increased with increasing dose following a single oral dose of the 20 mg tablet formulation (formulation 3) (FIG. 16).

[4] = Within-participant escalating dose trial Part A (5-20 mg): pharmacokinetics; type: in vivo, human; settings: single 5 mg dose, healthy volunteers
Protocol: In Part A, an open label trial was conducted.

[5] = Within-participant escalating dose trial Part B (20-120 mg titration): pharmacokinetics; settings: titrated dosing schedule
Protocol: Each participant completed 3 study periods: Screening, Treatment period (12 or 31 days), and Safety follow-up.
Participants were healthy males and females between the ages of 18 and 55 years old.
In Part B, a randomized controlled trial was conducted.

[6] = test system: adult patients with essential tremor; test: Example 16 Part B: QUEST total score; type: in vivo, human; settings: for QUEST total score, LS mean change from randomization baseline (Day 42): Formula (I) group; for QUEST total score, LS mean change from pre-dose baseline: Part B OLT
Excerpt: Patients were scheduled for Safety Follow-up on Day 70 (±1 day) in the clinic for the final clinical trial assessment.

[7] = test system: adult patients with essential tremor; test: Essential tremor trial Example 16 Part B open-label titration phase: TETRAS, mADL, ADL efficacy; type: in vivo, human; set-up: reduction in upper limb tremor amplitude / LS mean reduction in upper limb tremor amplitude / reduction in combined upper limb tremor amplitude: concentration or dose not given beside the values; settings: for TETRAS ADL Score CFB LS Mean / TETRAS CULS Score CFB LS Mean / TETRAS PS Item 6: Archimedes Spiral (Left) Score CFB LS Mean / TETRAS PS Item 6: Archimedes Spiral (Right) Score CFB LS Mean / TETRAS PS Item 7: Handwriting Score CFB LS Mean / TETRAS PSTS Score CFB LS Mean / TETRAS ULS Score CFB LS Mean / TETRAS mADL (TETRAS modified total score) Score CFB LS Mean / TETRAS ADL CTA LS Mean % / TETRAS CULS CTA LS Mean % / TETRAS PS Item 6: Archimedes Spiral (Left) CTA LS Mean % / TETRAS PS Item 6: Archimedes Spiral (Right) CTA LS Mean % / TETRAS PS Item 7: Handwriting CTA LS Mean % / TETRAS PSTS CTA LS Mean % / TETRAS ULS CTA LS Mean % / TETRAS mADL CTA LS Mean %: Part B - OLT, FAS; for TETRAS ADL Score CFB LS Mean / TETRAS CULS Score CFB LS Mean / TETRAS PS Item 6: Archimedes Spiral (Left) Score CFB LS Mean / TETRAS PS Item 6: Archimedes Spiral (Right) Score CFB LS Mean / TETRAS PS Item 7: Handwriting Score CFB LS Mean / TETRAS PSTS Score CFB LS Mean / TETRAS ULS Score CFB LS Mean / TETRAS mADL (TETRAS modified total score) Score CFB LS Mean: change from pre-dose baseline; for TETRAS ADL CTA LS Mean % / TETRAS CULS CTA LS Mean % / TETRAS PS Item 6: Archimedes Spiral (Left) CTA LS Mean % / TETRAS PS Item 6: Archimedes Spiral (Right) CTA LS Mean % / TETRAS PS Item 7: Handwriting CTA LS Mean % / TETRAS PSTS CTA LS Mean % / TETRAS ULS CTA LS Mean % / TETRAS mADL CTA LS Mean %: from pre-dose baseline; for TETRAS ADL score, LS mean change from pre-dose baseline / TETRAS combined upper limb score, LS mean change from pre-dose baseline / TETRAS upper limb score, LS mean change from pre-dose baseline / mADL score, LS mean change from pre-dose baseline / reduction in combined upper limb tremor amplitude / reduction in upper limb tremor amplitude / ADL, LS mean change from pre-dose baseline / LS mean reduction in upper limb tremor amplitude / mADL, LS mean change from pre-dose baseline: Part B OLT
Protocol: A two part trial (Part A and Part B as described below) was conducted to study the efficacy, safety, tolerability, and pharmacokinetics of the compound of formula (I) in adult patients with essential tremor (ET).
Participants were males and females ages 18 and older with a clinical diagnosis of ET. Participants who have a history of any other medical, neurological, or psychiatric condition that may explain or cause tremor were excluded. Participants who have previously received treatment with formula (I) in any clinical trial (including Part A of the current trial for participants enrolling in Part B) were also excluded.
In Part B, an open label titration phase and a randomized, double-blind, placebo-controlled trial was conducted. […] During the withdrawal phase, patients either continued receiving formula (I) at their current dose or switched to placebo, depending on the randomization, for 14 days (Day 43 to Day 56).

[8] = Day 7, subset with baseline upper limb scores ≥10
[9] = Day 21, subset with baseline upper limb scores ≥10

## CC(C)(C)NC(=O)CN1CCC(CNC(=O)c2cc(F)cc(Cl)c2)CC1.Cl [compound of formula (II), N-((1-(2-(tert-butylamino)-2-oxoethyl)piperidin-4-yl)methyl)-3-chloro-5-fluorobenzamide hydrochloride]
[1]
  dose levels well-tolerated with titration: up to 120 mg
[2]
  NREM sigma band compared to placebo control: decrease
hCav3.3
  tonic block/voltage dependent block (TB/VDB) ratio: 4.0

## CC(C)(C)NC(=O)CN1CCC(CNC(=O)c2cc(F)cc(Cl)c2)CC1 [compound of formula (I), N-((1-(2-(tert-butylamino)-2-oxoethyl)piperidin-4-yl)methyl)-3-chloro-5-fluorobenzamide]
[1]; highest dose tested 120 mg
  maximum tolerated dosage in the titration scheme: no maximum tolerated dosage was identified
[1]; human, in vivo, 31 days
  Cardiac Disorders: 4 n (%)
  Chest discomfort: 2 n (%)
  Dizziness: 3 n (%)
  General Disorders and Administration Site Conditions: 6 n (%)
  Headache: 2 n (%)
  Intoxicated sensation: 2 n (%)
  Medical device site dermatitis: 3 n (%)
  Nervous System Disorders: 5 n (%)
  Palpitations: 2 n (%)
  Participants with at least one TEAE: 12 n (%)
[1]; in vivo
  treatment related ECG or EEG abnormalities: no treatment related ECG or EEG abnormalities
[1]
  dose levels well-tolerated with titration: ≤ 120 mg
[3]; N = 6
  Cmax: ~130 ng/mL
[3]; read-out: AUC24
  AUC: ~1910 ng·h/mL
[4]
  time by which plasma concentrations were quantifiable: ≤ 0.50 h
[5]
  increase of Cmax and AUC24 above values of a lower dosage not tolerated without titration: 2-3 fold
[6]; Day 70 follow-up
  QUEST total score, LS mean change from randomization baseline (Day 42): 1.741
[6]; Day 7
  QUEST total score, LS mean change from pre-dose baseline: −0.561
[6]; Day 21
  QUEST total score, LS mean change from pre-dose baseline: −5.933
[6]; Day 42
  QUEST total score, LS mean change from pre-dose baseline: −8.203
[6]; Part B RWD, Day 56
  QUEST total score, LS mean change from randomization baseline (Day 42): −1.322
[7]; Day 7
  TETRAS ADL Score CFB LS Mean: −1.986
  TETRAS CULS Score CFB LS Mean: −0.909
  TETRAS PS Item 6: Archimedes Spiral (Left) Score CFB LS Mean: 0.221
  TETRAS PS Item 6: Archimedes Spiral (Right) Score CFB LS Mean: 0.006
  TETRAS PS Item 7: Handwriting Score CFB LS Mean: −0.019
  TETRAS PSTS Score CFB LS Mean: −1.253
  TETRAS ULS Score CFB LS Mean: −0.967
  TETRAS mADL (TETRAS modified total score) Score CFB LS Mean: −2.862
  TETRAS ADL CTA LS Mean %: −7.29%
  TETRAS CULS CTA LS Mean %: −9.1%
  TETRAS PS Item 6: Archimedes Spiral (Left) CTA LS Mean %: 22.4%
  TETRAS PS Item 6: Archimedes Spiral (Right) CTA LS Mean %: 0.6%
  TETRAS PS Item 7: Handwriting CTA LS Mean %: −2.2%
  TETRAS PSTS CTA LS Mean %: −8.6%
  TETRAS ULS CTA LS Mean %: −16.9%
  TETRAS mADL CTA LS Mean %: −18.49%
  TETRAS ADL score, LS mean change from pre-dose baseline: −1.986
  TETRAS combined upper limb score, LS mean change from pre-dose baseline: −0.909
  TETRAS upper limb score, LS mean change from pre-dose baseline: −0.967
  mADL score, LS mean change from pre-dose baseline: −2.862
  reduction in combined upper limb tremor amplitude: 9.1%
  reduction in upper limb tremor amplitude: 16.9%
[7]; Day 21
  TETRAS ADL Score CFB LS Mean: −3.475
  TETRAS CULS Score CFB LS Mean: −1.320
  TETRAS PS Item 6: Archimedes Spiral (Left) Score CFB LS Mean: −0.012
  TETRAS PS Item 6: Archimedes Spiral (Right) Score CFB LS Mean: −0.240
  TETRAS PS Item 7: Handwriting Score CFB LS Mean: 0.107
  TETRAS PSTS Score CFB LS Mean: −1.449
  TETRAS ULS Score CFB LS Mean: −1.143
  TETRAS mADL (TETRAS modified total score) Score CFB LS Mean: −2.812
  TETRAS ADL CTA LS Mean %: −12.02%
  TETRAS CULS CTA LS Mean %: −12.9%
  TETRAS PS Item 6: Archimedes Spiral (Left) CTA LS Mean %: −1.3%
  TETRAS PS Item 6: Archimedes Spiral (Right) CTA LS Mean %: −24.2%
  TETRAS PS Item 7: Handwriting CTA LS Mean %: 11.5%
  TETRAS PSTS CTA LS Mean %: −9.9%
  TETRAS ULS CTA LS Mean %: −19.7%
  TETRAS mADL CTA LS Mean %: −14.31%
  TETRAS ADL score, LS mean change from pre-dose baseline: −3.475
  TETRAS combined upper limb score, LS mean change from pre-dose baseline: −1.320
  TETRAS upper limb score, LS mean change from pre-dose baseline: −1.143
  mADL score, LS mean change from pre-dose baseline: −2.812
  reduction in combined upper limb tremor amplitude: 12.9%
  reduction in upper limb tremor amplitude: 19.7%
[7]; Day 42, 6 hours post-dose
  TETRAS ADL Score CFB LS Mean: −8.207
  TETRAS CULS Score CFB LS Mean: −1.882
  TETRAS PS Item 6: Archimedes Spiral (Left) Score CFB LS Mean: −0.072
  TETRAS PS Item 6: Archimedes Spiral (Right) Score CFB LS Mean: −0.239
  TETRAS PS Item 7: Handwriting Score CFB LS Mean: −0.054
  TETRAS PSTS Score CFB LS Mean: −2.771
  TETRAS ULS Score CFB LS Mean: −2.090
  TETRAS mADL (TETRAS modified total score) Score CFB LS Mean: −6.669
  TETRAS ADL CTA LS Mean %: −29.59%
  TETRAS CULS CTA LS Mean %: −17.9%
  TETRAS PS Item 6: Archimedes Spiral (Left) CTA LS Mean %: −8.0%
  TETRAS PS Item 6: Archimedes Spiral (Right) CTA LS Mean %: −24.1%
  TETRAS PS Item 7: Handwriting CTA LS Mean %: −6.0%
  TETRAS PSTS CTA LS Mean %: −18.1%
  TETRAS ULS CTA LS Mean %: −33.0%
  TETRAS mADL CTA LS Mean %: −42.04%
[7]; [8]
  ADL, LS mean change from pre-dose baseline: −2.222
  LS mean reduction in upper limb tremor amplitude: 22.9%
  mADL, LS mean change from pre-dose baseline: −3.011
[7]; [9]
  ADL, LS mean change from pre-dose baseline: −4.444
  LS mean reduction in upper limb tremor amplitude: 26.7%
  mADL, LS mean change from pre-dose baseline: −3.773
[7]; Day 42
  TETRAS ADL score, LS mean change from pre-dose baseline: −8.207
  TETRAS combined upper limb score, LS mean change from pre-dose baseline: −1.882
  TETRAS upper limb score, LS mean change from pre-dose baseline: −2.090
  mADL score, LS mean change from pre-dose baseline: −6.669
  reduction in combined upper limb tremor amplitude: 17.9%
  reduction in upper limb tremor amplitude: 33.0%
